System: NOMO1
Test: cell viability relative to DMSO control; higher = less cytotoxic
Settings: 48 h
Outline: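 Viability was expressed as a per-plate percentage of DMSO wells, with cell-free wells as background. Leukemia cells (NOMO1 or SEM at 500 cells/well, P12-Ichikawa at 1000 cells/well) were adapted for at least four passages in each medium and seeded in 1536-well plates (5 μl). Library compounds in DMSO were pin-dosed over an 11-point threefold series from 47 μM to 0.79 nM, and CellTiter-Glo One luminescence was read after 48 h at 37°C.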

[1] = HPLM + 10% dialyzed FBS, 0.000781 µM
[2] = HPLM + 10% dialyzed FBS, 0.00234 µM
[3] = HPLM + 10% dialyzed FBS, 0.00702 µM
[4] = HPLM + 10% dialyzed FBS, 0.0211 µM
[5] = HPLM + 10% dialyzed FBS, 0.0632 µM
[6] = HPLM + 10% dialyzed FBS, 0.19 µM
[7] = HPLM + 10% dialyzed FBS, 0.569 µM
[8] = HPLM + 10% dialyzed FBS, 1.71 µM
[9] = HPLM + 10% dialyzed FBS, 5.12 µM
[10] = HPLM + 10% dialyzed FBS, 15.4 µM
[11] = HPLM + 10% dialyzed FBS, 46.1 µM
[12] = RPMI 5 mM glucose + 10% FBS, 0.000781 µM
[13] = RPMI 5 mM glucose + 10% FBS, 0.00234 µM
[14] = RPMI 5 mM glucose + 10% FBS, 0.00702 µM
[15] = RPMI 5 mM glucose + 10% FBS, 0.0211 µM
[16] = RPMI 5 mM glucose + 10% FBS, 0.0632 µM
[17] = RPMI 5 mM glucose + 10% FBS, 0.19 µM
[18] = RPMI 5 mM glucose + 10% FBS, 0.569 µM
[19] = RPMI 5 mM glucose + 10% FBS, 1.71 µM
[20] = RPMI 5 mM glucose + 10% FBS, 5.12 µM
[21] = RPMI 5 mM glucose + 10% FBS, 15.4 µM
[22] = RPMI 5 mM glucose + 10% FBS, 46.1 µM
[23] = RPMI 5 mM glucose + 10% dialyzed FBS, 0.000781 µM
[24] = RPMI 5 mM glucose + 10% dialyzed FBS, 0.00234 µM
[25] = RPMI 5 mM glucose + 10% dialyzed FBS, 0.00702 µM
[26] = RPMI 5 mM glucose + 10% dialyzed FBS, 0.0211 µM
[27] = RPMI 5 mM glucose + 10% dialyzed FBS, 0.0632 µM
[28] = RPMI 5 mM glucose + 10% dialyzed FBS, 0.19 µM
[29] = RPMI 5 mM glucose + 10% dialyzed FBS, 0.569 µM
[30] = RPMI 5 mM glucose + 10% dialyzed FBS, 1.71 µM
[31] = RPMI 5 mM glucose + 10% dialyzed FBS, 5.12 µM
[32] = RPMI 5 mM glucose + 10% dialyzed FBS, 15.4 µM
[33] = RPMI 5 mM glucose + 10% dialyzed FBS, 46.1 µM

Structure (SMILES)	cell viability [1] [%]	cell viability [2] [%]	cell viability [3] [%]	cell viability [4] [%]	cell viability [5] [%]	cell viability [6] [%]	cell viability [7] [%]	cell viability [8] [%]	cell viability [9] [%]	cell viability [10] [%]	cell viability [11] [%]	cell viability [12] [%]	cell viability [13] [%]	cell viability [14] [%]	cell viability [15] [%]	cell viability [16] [%]	cell viability [17] [%]	cell viability [18] [%]	cell viability [19] [%]	cell viability [20] [%]	cell viability [21] [%]	cell viability [22] [%]	cell viability [23] [%]	cell viability [24] [%]	cell viability [25] [%]	cell viability [26] [%]	cell viability [27] [%]	cell viability [28] [%]	cell viability [29] [%]	cell viability [30] [%]	cell viability [31] [%]	cell viability [32] [%]	cell viability [33] [%]
C=CC(=O)Nc1cccc(Sc2nc(Nc3ccc(N4CCN(C)CC4)cc3)ncc2Cl)c1	102	103	101	104	110	109	127	114	117	98.5	24.9	97.3	104	121	104	101	120	109	116	113	119	8.7	95.4	101	97.1	92.1	112	93	98.2	97.5	107	107	11.6
CN(CCOc1ccc(CC2SC(=O)NC2=O)cc1)c1ccccn1 (stereo not drawn)												110	113	121	108	115	117	113	112	127	113	109											
CCNC(=O)CCC/C=C\C[C@@H]1[C@@H](/C=C/C(O)CCc2ccccc2)[C@@H](O)C[C@@H]1O (stereo partly drawn)	104	108	106	131	112	130	103	116	105	110	39.5	116	118	124	106	108	105	113	120	118	102	38	113	121	106	116	114	105	120	105	118	111	32.3
CN1CCc2c(c3ccccc3n2Cc2ccc(C(=O)NO)cc2)C1	76	78.8	76.3	79.8	80	80.5	82.6	87.6	97.5	64.7	38.6	75.2	70.2	77.2	82.5	74.1	73.4	80.9	76.5	75.8	78.7	47.2	71.5	69.8	91.9	91.1	84.6	87.7	89.5	98	92.5	72.3	53.5
CO[C@H]1CCC(O[C@H]2C[C@H]([C@]3(C)CC[C@]4(C[C@H](O)[C@@H](C)[C@@H]([C@@H](C)/C=C(\C)C(=O)[C@H](C)C[C@H](C)C(=O)[O-])O4)O3)O[C@]3(O[C@@H]([C@H]4O[C@@](O)(CO)[C@H](C)C[C@@H]4C)C[C@@H]3C)[C@@H]2C)O[C@@H]1C (stereo partly drawn)	112	124	136	109	134	101	118	88.8	84.4	63.7	55.1	123	121	113	122	145	121	124	118	111	97.6	67.7	112	122	133	118	111	114	132	106	48.9	78.2	64.2
COc1cc2c(cc1OC)[C@@H]1Cc3ccc(OC)c(OC)c3CN1CC2	120	129	115	105	118	110	112	117	114	99.4	31.2	98.1	101	94.8	97.1	106	104	97.6	101	102	92.7	34.3	112	114	116	107	96.5	109	95.6	97.8	106	103	56
CN(C)C/C=C/C(=O)Nc1ccc(C(=O)Nc2cccc(Nc3ncc(Cl)c(-c4c[nH]c5ccccc45)n3)c2)cc1	78.8	99.4	101	94.6	88.4	85.2	5.25	4.49	4.42	3.89	3.78	81.9	91.4	84.4	93.8	93.5	98.7	5.96	4.95	4.62	3.68	3.47	80	87.7	91.2	94.7	95	73.9	3.8	3.8	3.2	2.9	3.15
CC(=O)N(C)C1(c2ccccc2)CCN(CCC[C@]2(c3ccc(Cl)c(Cl)c3)CCCN(C(=O)c3ccccc3)C2)CC1	116	124	128	117	123	104	58.4	25.1	9.73	10	4.11	106	109	122	126	128	122	111	65.5	15.3	8.99	5.76	110	112	114	115	106	115	100	60.3	16.9	10.3	5.1
Cc1cn2cc(C(=O)N(C)CCO)cc(N[C@@H]3CCOc4cccc(C)c43)c2n1	93.8	105	112	118	122	115	110	131	119	108	130	96.2	108	107	104	105	106	113	111	122	117	129	105	104	114	130	114	110	122	117	115	128	129
Nc1ccc(C(=O)Nc2cccc(-c3nc(N4CCOCC4)c4oc5ncccc5c4n3)c2)cn1	122	118	135	121	115	122	128	98.8	67.7	74.5	49.3	118	123	129	104	118	110	115	108	82.8	83.4	91	115	124	107	113	110	119	91	84.9	65	73.7	61.5
O=C(O)c1cc(O)c2c(c1)C(=O)c1cccc(O)c1C2=O	113	111	127	107	127	117	127	125	113	104	94.3	115	120	116	121	114	101	103	110	107	99.5	104	110	119	102	121	112	107	112	119	119	95.4	96.2
C[C@]12CC[C@H]3[C@@H](CC(=C)\C4=C\C(=O)\C=C/[C@]34C)[C@@H]1CCC2=O	111	105	92.2	107	105	99.1	99.1	113	119	99.6	52.8	99.5	89.3	95.8	90.4	92.6	92.1	97.8	90.6	81.6	80.3	74.9	75.8	100	99.7	108	98.3	91.6	94.4	102	92.5	86.4	61.8
Nc1n[nH]c2nnc(-c3c(-c4ccccc4)nn4ccccc34)cc12	103	139	118	131	134	137	137	86.3	40.5	37.4	37.3	116	114	144	124	138	123	133	59	24	26.9	20.8	116	123	134	129	136	129	138	119	29.1	28	21.4
C[C@@H]1CC[C@@]2(CC[C@]3(C)\C(=C/C[C@@H]4[C@@]5(C)CC[C@H](O)C(C)(C)[C@@H]5CC[C@@]34C)[C@@H]2[C@H]1C)C(O)=O	111	120	116	113	111	127	130	113	113	111	119	113	108	120	106	112	108	98.7	104	102	112	106	104	120	117	125	124	113	121	112	114	106	114
O=C(/C=C/c1ccc(/C=C/C(=O)Nc2ccc(C3=NCCN3)cc2)cc1)Nc1ccc(C2=NCCN2)cc1	103	108	111	108	111	116	117	123	121	111	122	104	98.8	115	117	123	106	106	115	117	125	131	88.2	107	95.5	106	117	117	113	112	108	112	102
